The values below come from paper PMC6433934, “Preclinical Evaluation of Bispecific Adaptor Molecule Controlled Folate Receptor CAR-T Cell Therapy With Special Focus on Pediatric Malignancies” (Frontiers in Oncology, 2019).

pKd: −log10 of the molar value.

For orientation: pKd means the negative decadic logarithm of the Kd, by convention in mol/L. Read a high pKd as a low Kd.

One data set concerns the target T1, FRα (Homo sapiens, UniProt P15328).
T1 construct: KB (FRα-expressing human cervical carcinoma with HeLa markers); endogenous in cells; host or cells: KB cells (human cervical carcinoma with HeLa markers)
Kind of data set: 3H-EC17 cell-based radioligand binding, KB cells. Particulars: ^3H-EC17, KB cells, 2 h at 37°C, from molecules bound per cell. As for the experimental part:
Unless otherwise noted, all FR+ and FR-negative cancer cell lines were, respectively, maintained in RPMI-1640 medium (Gibco BRL) supplemented with 10% heat-inactivated fetal calf serum without (FFRPMI) or with (RPMI) 2.4 μM folic acid (FA). KB (FRα-expressing human cervical carcinoma with HeLa markers) and CHO-β (Chinese hamster ovary cells transfected with human FRβ) were used as the sources of FRα and FRβ for radioligand binding assays, respectively ([18]). MDA-MB-231 represents a FRα+ subclone of human TNBC cell line. For AML studies, the green fluorescent protein (GFP)-expressing isogenic pairs of FRβ-positive (THP1-FRβ) and FR-negative (THP1-FG12) cell lines were kindly provided by Dr. Manohar Ratnam (The University of Toledo, Toledo, OH). […]
The bispecific affinities of EC17 CAM were assessed using ^3H-EC17 in cell-based radioligand binding assays. […] The whole cell lysates were quantitated for the level of radioactivity and cellular protein content by standard Pierce BCA protein assay. The number of ^3H-EC17 molecules bound per cell was calculated to determine the dissociation constants (Kd) for FRα (KB) and FRβ (CHO-β), respectively. […] Afterwards, the cells were washed 4x with PBS, lysed with 0.1% Triton X-100 plus 0.1 N NaOH and counted in a scintillation counter. […]

In another data set the test system is HOS-FRα tumors. Kind of data set: Osteosarcoma study, subcutaneous xenografts, EC17 dose escalation. It counts as in vivo. How it is done:
All animal care and use were performed according to NIH guidelines and in compliance with protocols approved by the Purdue University Animal Use and Care Committee. Female 4 to 5-weeks-old NOD/SCID gamma (NSG™) mice (stock number: 005557) were purchased from The Jackson Laboratory (Bar Harbor, ME). Unless specifically indicated, all animals were maintained on a FA-deficient diet (TestDiet, St. Louis, MO) upon arrival and throughout the study. To establish subcutaneous xenografts, MDA-MB-231 and HOS-FRα were implanted in the right flank region at 2.5 × 10^6 and 1 × 10^6 cells per animal, respectively. For intravenous xenografts, THP1-FRβ cells were inoculated at 5 × 10^6 cells per animal. Subcutaneous tumors were measured 2–3 times per week with a caliper and calculated using the ellipsoidal formula (length x width^2)/2. […] All animal doses (CAR-T cells, EC17, sodium fluorescein) were given intravenously.
For osteosarcoma study, two cohorts of mice were subcutaneously implanted with HOS-FRα tumor cells 3 days prior to receiving ~6 million of the same CAR-T cell preparation used in the THP1-FRβ study. At ~3.5 days post CAR-T cell infusion, one cohort of mice was given up to 3 cycles of EC17 at 5/10/100 nmol/kg in Cycle 1, 5/30/300 nmol/kg in Cycle 2, and 5/50/500 nmol/kg in Cycle 3, all following the Monday/Thursday/Monday regimen with a 6 day break in-between cycles. At the end of study, circulating CD3ε+ EGFRt+ CAR-T cells per 100 μL of mouse blood were enumerated. HOS-FRα tumors (+/- EC17 treatment) were also harvested and digested for flow cytometric analysis of tumor-infiltrating CAR-T cells.
Depending on the CAR-T cell dose and how EC17 is administered, tumor-bearing mice receiving FITC-specific CAR-T cells can experience severe CRS and varying degrees of body weight loss ([27], [33], [34]). Therefore, we developed a CRS grading system (0–5 scale) to empirically assess CRS toxicity from animals' gross morphology and social behavior to allow for better timing of CRS rescue. While grades 0 and 5 indicated normal (no CRS) or death (due to severe CRS), respectively, grades 1, 2, and 3–4 were considered mild, light-to-moderate, and severe CRS. In addition, all EC17 doses were intentionally given toward the end of any given day to allow potential CRS symptoms to develop overnight. On the days immediately following each EC17 dose, animals were scored and rescue agents such as sodium fluorescein, folic acid and leucovorin were used to mitigate CRS toxicity ([33]). In this particular instance, a batch of E2-CAR-T cells with a high EGFRt+ CD4/CD8 ratio (~93:7) was given to HOS-FRα tumor-bearing mice at a mixture of ~2.5 million CD8 and ~33 million CD4 on day 0. […]

T1 sequence (P15328 25-257): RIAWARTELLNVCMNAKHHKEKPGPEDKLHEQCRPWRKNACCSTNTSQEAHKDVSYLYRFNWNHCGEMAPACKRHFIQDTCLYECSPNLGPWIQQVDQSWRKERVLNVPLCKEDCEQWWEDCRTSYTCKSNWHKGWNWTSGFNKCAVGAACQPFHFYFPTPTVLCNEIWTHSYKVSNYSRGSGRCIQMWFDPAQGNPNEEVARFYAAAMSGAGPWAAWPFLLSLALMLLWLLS

The compound `Nc1nc2ncc(CNc3ccc(C(=O)NC(CCC(=O)NCCNC(=S)Nc4ccc(-c5c6ccc(=O)cc-6oc6cc(O)ccc56)c(C(=O)O)c4)C(=O)O)cc3)nc2c(=O)[nH]1` (centres unmarked) [EC17, FA-(γ)-ethylenediamine-FITC] had a pKd at FRα of 8.77. Also, the “safety (CRS, body weight)” value in the data set on HOS-FRα tumors (EC17 M/Th/M escalation 5/10/100, 5/30/300, 5/50/500 nmol/kg, ~6 million E2-CAR-T cells) is listed as “no CRS or body weight loss”. Further, the tumor growth entry in the data set with HOS-FRα tumors (EC17 M/Th/M escalation, within the first two cycles, ~6 million E2-CAR-T cells) is recorded as “significant delay in tumor growth”. In addition, in the data set with HOS-FRα tumors (HOS-FRα xenografts, EC17 plus E2-CAR-T cells), the cures entry was “no cures”. The “intratumoral CD3ε+ EGFRt+ CAR-T cell population” value with HOS-FRα tumors (day 33, EC17-treated animals) is ~ 1 % total viable digested tumor-derived cells.
